Results as given in patent publication US20230003721A1, “MITOTHERAPEUTICS FOR THE TREATMENT OF BRAIN DISORDERS” (The University of Florida Research Foundation, Inc., priority 2019, published 2023).
Where a name gives a salt, the structure may show the parent alone.

Tests used:
[1] = tested on: isolated forebrain mitochondria; experiment: ATP production of isolated mitochondria (luciferase-based kinetic assay); type: biochemical, mouse
Method: Isolation of mitochondria. For the ATP synthesis experiments of FIG. 6, forebrains from P0 pups were dissected as described above. 2×10^7 cells were harvested for high-purity mitochondrial isolation using the Qiagen QProteome kit. The mitochondrial pellet was resuspended in 500 μl mitochondria storage buffer (provided by kit) and kept on ice until further use.
ATP production of isolated forebrain mitochondria of P0 pups was measured by ATP Determination Kit (Molecular Probes). […] The reactions were initiated by the addition of 1 mM ADP (deprived of ATP contamination by adding 3 U/ml hexokinase to 10 mM of ADP in 50 mM Tris-HCl, 20 mM MgCl2 and 22 mM glucose, incubating the solution at 37° C. for 1 hr and heat inactivating the hexokinase at 100° C. for 3 min). Luminescence was recorded every 15-30 sec for 1 hr at 580±40 nm.

[2] = tested on: NRF2-mediated antioxidant response; conditions: WO2012149478A3; cited from earlier work
primary cortical neurons = conditions: Ding et al. 2011; cited from earlier work

Compound: CCCCOc1ccc(C(=O)CCN2CCCCC2)cc1 [DYCLONINE HYDROCHLORIDE]
- ATP production kinetics, amplitude of single exponential fit ([1]; 12 μM, starting 20 min after addition, DMSO 22498±358): 28882±673
- ATP production of isolated mitochondria (direct effect) ([1]; 12.5 μM, within the 45-min measurement period, vs DMSO): significantly increased

Compound: COC(=O)[C@@H]1[C@H]2C[C@H]3c4[nH]c5ccccc5c4CCN3C[C@@H]2CC[C@@H]1O [YOHIMBINE HYDROCHLORIDE]
- neuroprotection by inducing the NRF2-mediated antioxidant response [2]: neuroprotective

Compound: O=c1c(-c2ccc(O)cc2)coc2cc(O)cc(O)c12 [GENISTEIN]
- ΔΨm in primary cortical neurons treated with Aβ peptide (primary cortical neurons): increase ΔΨm
